The record followed here is PMC4334441 (Analytical biochemistry, 2013).

Assay type in all cases: biochemical
In experiment [1] the target is mammalian-expressed ADAM17_ECD (Homo sapiens, UniProt P78536). Kind of experiment: Inhibition studies. To be noted: comparison of insect- and mammalian-produced ADAM17_ECD.
The target of experiment [2] is insect-produced ADAM17 ECD (Homo sapiens, UniProt P78536). Kind of experiment: Inhibition kinetics. To be noted: for Ki/Ki′ (alpha) / inhibition mechanism: insect-produced ADAM17 ECD; for Ki/Ki′ (alpha): mixed-model inhibition; for inhibition mechanism: confirmed by Lineweaver-Burke plots.
In experiment [3] the target is mammalian-produced ADAM17 ECD (Homo sapiens, UniProt P78536). The experiment can be described thus: Inhibition kinetics. To be noted: for Ki/Ki′ (alpha) / inhibition mechanism: mammalian-produced ADAM17 ECD; for Ki/Ki′ (alpha): mixed-model inhibition; for inhibition mechanism: confirmed by Lineweaver-Burke plots.
Experiment [4] deals with insect-produced ADAM17_ECD (R&D Systems) (Homo sapiens, UniProt P78536). The experiment can be described thus: ADAM17 active site titration with MMP-9/-13 inhibitor, insect-produced ADAM17.

Like-named read-outs stand apart in the source and are kept apart here.

Chain of mammalian-produced ADAM17 ECD (P78536 215-651 limits assumed): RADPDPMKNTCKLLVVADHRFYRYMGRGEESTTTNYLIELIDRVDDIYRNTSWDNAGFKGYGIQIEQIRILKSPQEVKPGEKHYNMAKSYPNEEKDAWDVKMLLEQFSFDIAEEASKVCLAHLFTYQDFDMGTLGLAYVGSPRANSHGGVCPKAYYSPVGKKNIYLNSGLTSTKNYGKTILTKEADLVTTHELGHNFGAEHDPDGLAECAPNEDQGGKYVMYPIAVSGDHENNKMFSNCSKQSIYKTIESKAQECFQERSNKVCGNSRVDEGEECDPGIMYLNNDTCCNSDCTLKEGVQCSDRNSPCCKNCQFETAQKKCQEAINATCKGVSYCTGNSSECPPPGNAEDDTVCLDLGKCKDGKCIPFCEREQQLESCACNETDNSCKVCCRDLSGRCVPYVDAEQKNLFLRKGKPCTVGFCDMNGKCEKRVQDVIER
Chain of mammalian-expressed ADAM17_ECD (P78536 215-651 limits assumed): as above
Chain of insect-produced ADAM17 ECD (P78536 215-671 limits assumed): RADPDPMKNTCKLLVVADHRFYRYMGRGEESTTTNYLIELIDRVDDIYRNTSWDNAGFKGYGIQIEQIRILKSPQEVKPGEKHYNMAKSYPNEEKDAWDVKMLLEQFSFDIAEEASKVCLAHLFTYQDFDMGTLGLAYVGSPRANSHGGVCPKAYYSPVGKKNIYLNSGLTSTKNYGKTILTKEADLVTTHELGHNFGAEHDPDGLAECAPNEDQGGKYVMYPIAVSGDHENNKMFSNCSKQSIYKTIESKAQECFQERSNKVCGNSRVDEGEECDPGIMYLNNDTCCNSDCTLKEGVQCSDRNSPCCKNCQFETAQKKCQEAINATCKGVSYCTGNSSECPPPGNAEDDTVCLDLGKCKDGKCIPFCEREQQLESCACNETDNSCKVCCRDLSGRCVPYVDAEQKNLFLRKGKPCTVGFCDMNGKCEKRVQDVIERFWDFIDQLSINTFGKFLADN
Chain of insect-produced ADAM17_ECD (R&D Systems) (P78536 215-671 limits assumed): as above

As for `CC(=O)NO` [AHA, N-acetohydroxamic acid], the “dose response curves for inhibition of insect- versus mammalian-expressed ADAM17” value in experiment [1] is “superimposable”.

One may read the Ki as a dissociation constant, usually derived from enzyme kinetics or from competition with a known ligand. A high value points to lower affinity. Turning to `COc1ccc(S(=O)(=O)N2CCN(C(=O)c3ccc(-c4ccccc4)cc3)CC2C(=O)NO)cc1` (centres unmarked) [MMP-9/-13 inhibitor, N-hydroxy-1-(4-methoxyphenyl)sulfonyl-4-(4-biphenylcarbonyl)piperazine-2-carboxamide], the Ki worked out at 0.0031 ± 0.0002 µM in experiment [2] and 0.0018 ± 0.0001 µM in experiment [3]. Also, the “Ki/Ki′ (alpha)” value in experiment [2] is reported as 0.91 ± 0.26; in experiment [3], 0.99 ± 0.34. Besides, the inhibition mechanism result in experiment [2] (non-linear regression) and in experiment [3] (non-linear regression) was “pure non-competitive inhibition” each time. Besides, in experiment [4] (10.5 nM divided by enzyme concentration 0.4 nM, Fig. 5B), the “stoichiometry of ADAM17_ECD and MMP-9/-13 inhibitor (factor)” value was 26.3. Further, in experiment [4] (titration, enzyme concentration 0.4 nM, Fig. 5A), the “concentration of inhibitor necessary to produce 100% inhibition of ADAM17” value is 10.5 nM. Also, in experiment [1], the “dose response curves for inhibition of insect- versus mammalian-expressed ADAM17” value was “superimposable”.

In the case of `CC(C)C[C@H](CC(=O)NO)C(=O)N[C@H](C(=O)N[C@@H](C)C(=O)NCCN)C(C)(C)C` [TAPI-2], the Ki in experiment [2] (insect-produced ADAM17, mixed inhibition model, non-linear regression) amounted to 0.031 ± 0.0014 µM; in experiment [3] (mammalian-produced ADAM17, mixed inhibition model, non-linear regression), 0.032 ± 0.005 µM. Besides, the “Ki/Ki′ (alpha)” value came out at 1.76 ± 0.42 in experiment [2] and 2.27 ± 0.55 in experiment [3]. Besides, the inhibition mechanism entry in experiment [2] (non-linear regression) and in experiment [3] (non-linear regression) was “mixed inhibition” in each case. Also, the “dose response curves for inhibition of insect- versus mammalian-expressed ADAM17” value in experiment [1] is on record as “superimposable”.
